Values quoted from earlier work as cited in US20060069047A1, “Antibiotic conjugates” (priority 2002, published 2006).

What was measured:
[1] = test system: PMN; settings: intracellular/extracellular concentration, PMN incubated 1 h
[2] = test system: phagocytic cells
[3] = in vivo

Q: For `C[C@H]1COc2c(N3CCN(C)CC3)c(F)cc3c(=O)c(C(=O)O)cn1c23` [Levofloxacin], which I/E ratio [1] is on record?
A: 4.8

Q: With `CC1(C)SC2C(NC(=O)Cc3ccccc3)C(=O)N2C1C(=O)O` (stereo not shown) [Penicillin G, 3,3-Dimethyl-7-oxo-6-phenylacetylamino-4-thia-1-aza-bicyclo[3.2.0]heptane-2-carboxylic acid] as the compound, how does the I/E ratio [1] read?
A: 0.16

Q: For `COc1c(N2C[C@@H]3CCCN[C@@H]3C2)c(F)cc2c(=O)c(C(=O)O)cn(C3CC3)c12` [Moxifloxacin], which I/E ratio [1] is on record?
A: 12.0

Q: With `CC[C@H]1OC(=O)[C@H](C)[C@@H](O[C@H]2C[C@@](C)(OC)[C@@H](O)[C@H](C)O2)[C@H](C)[C@@H](O[C@@H]2O[C@H](C)C[C@H](N(C)C)[C@H]2O)[C@](C)(O)C[C@@H](C)CN(C)[C@H](C)[C@@H](O)[C@]1(C)O` [Azithromycin] as the compound, how does the I/E ratio [1] read?
A: 517

Q: What about the “cellular-to-extracellular concentration ratio (C/E)” value [2] of the same compound?
A: ~500

Q: And the “half-life (t1/2)” value [3]?
A: ~68 h

Q: Which I/E ratio [1] does the source give for `CC[C@H]1OC(=O)[C@H](C)C(=O)[C@H](C)[C@@H](O[C@@H]2O[C@H](C)C[C@H](N(C)C)[C@H]2O)[C@](C)(OC)C[C@@H](C)C(=O)[C@H](C)[C@H]2N(CCCCn3cnc(-c4cccnc4)c3)C(=O)O[C@]12C` [Telithromycin] here?
A: 197
